Reference: patent publication US20260092061A1, “COMPOUNDS FOR TARGETED PROTEIN DEGRADATION” (Amphista Therapeutics Limited, priority 2022, published 2026)
Read-outs that look alike come from different tables or passages of the source.

Target: T1, BRD9 (Homo sapiens, UniProt Q9H8M2)
T1 sequence (Q9H8M2 1-597): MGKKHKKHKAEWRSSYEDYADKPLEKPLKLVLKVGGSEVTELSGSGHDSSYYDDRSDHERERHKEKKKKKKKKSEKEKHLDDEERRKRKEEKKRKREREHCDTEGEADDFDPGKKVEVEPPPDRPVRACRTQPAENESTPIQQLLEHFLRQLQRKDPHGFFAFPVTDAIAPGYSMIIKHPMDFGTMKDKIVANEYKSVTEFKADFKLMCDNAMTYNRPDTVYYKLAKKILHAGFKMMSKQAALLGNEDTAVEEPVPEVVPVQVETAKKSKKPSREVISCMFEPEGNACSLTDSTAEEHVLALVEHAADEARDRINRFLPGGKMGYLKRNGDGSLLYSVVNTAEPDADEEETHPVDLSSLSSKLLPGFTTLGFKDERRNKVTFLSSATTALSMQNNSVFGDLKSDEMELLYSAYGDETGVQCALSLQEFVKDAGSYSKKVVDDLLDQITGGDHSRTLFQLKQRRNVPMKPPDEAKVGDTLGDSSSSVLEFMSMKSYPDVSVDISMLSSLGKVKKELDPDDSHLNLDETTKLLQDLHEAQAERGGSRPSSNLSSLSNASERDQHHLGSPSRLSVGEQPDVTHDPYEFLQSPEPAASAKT
Assay: BRD9 degradation, HiBiT-BRD9 KI HEK293 (LgBiT) cells, NanoGlo Lytic Endpoint assay (Assay Protocol 1)
Type: cell-based
Settings: BRD9 degradation; for Dmax at 1 µM: 1 μM compound at 6 h of treatment, read-out: Assay 1 Dmax
Method: HiBiT-BRD9 KI HEK293 (LgBiT) Cells (Promega CS3023412) were seeded at 8000 cells per well (38 μL) in sterile white bottom 384 well plates (Invitrogen 164610 or Greiner 781080) and incubated overnight at 37° C. with 5% CO2. The next day, compounds were prepared at 1000× final concentration in DMSO and diluted 1:100 in media (DMEM PAN Biotech P04-03550+10% FBS ATCC 302025). 4 μL compound was added to each well of the cell plate and incubated for 6 h at 37° C. with 5% CO2 BRD9 expression was quantified using the NanoGlo Lytic Endpoint assay (Promega N3050). The lytic buffer was equilibrated to room temperature for 10-15 min before lytic reagent was prepared by adding substrate (1:50) and LgBit protein (1:100) in lytic buffer. 40 μL lytic reagent mix was added to each well of the cel plate and plates were centrifuged briefly at ˜50g. Plates were incubated with shaking (350 RPM) for 12-24 min before reading using the LUM plus module of a BMG Pherastar FSX. Data was analysed using Dotmatics software and % BRD9 remaining was calculated by normalisation to average data from high and low control wells (DMSO treated cels and no cells respectively).

[1] = HEK293, Table 2, Assay Protocol 1
[2] = Table 2, Assay Protocol 1, 6 h of treatment, read-out: Assay 1 DC50

| Structure (SMILES) | Dmax at 1 µM [1] [%] | DC50 [2] [nM] | DC50 (Assay protocol 1, read-out: DC50) [nM] | Dmax (HEK293, Assay protocol 1, read-out: Dmax) [%] |
| --- | --- | --- | --- | --- |
| COc1cc(-c2cn(C)c(=O)c3cnccc23)cc(OC)c1CN1CCN(Cc2ccc(C3CCCN3C(=O)/C(C#N)=C/c3nccs3)cc2)CC1 (mixture of isomers) [Compound A38, (E/Z)-2-(2-(4-((4-(2,6-dimethoxy-4-(2-methyl-1-oxo-1,2-dihydro-2,7-naphthyridin-4-yl)benzyl)piperazin-1-yl)methyl)phenyl)pyrrolidine-1-carbonyl)-3-(thiazol-2-yl)acrylonitrile] | 40 to 70 | 1.25 to 10 | – | – |
| COc1cc(-c2cn(C)c(=O)c3cnccc23)cc(OC)c1CN1C2CC1CN(Cc1cccc3c1CCN(C(=O)/C(C#N)=C/C(C)(C)C)C3C)C2 (mixture of isomers) [Compound A40] | 70 to 75 | 10 to 25 | – | – |
| COc1cc(-c2cn(C)c(=O)c(C)c2C)cc(OC)c1CN1CCN(Cc2cccc3c2CCN(C(=O)/C(C#N)=C/C2CC2)C3C)CC1 (mixture of isomers) [Compound A44] | 40 to 70 | 1.25 to 10 | – | – |
| COc1cc(-c2cn(C)c(=O)c(C)c2C)cc(OC)c1CN1CCN(Cc2cccc3c2CCN(C(=O)/C(C#N)=C/C2CCC2)C3C)CC1 (mixture of isomers) [Compound A45] | 70 to 75 | 1.25 to 10 | – | – |
| COc1cc(-c2cn(C)c(=O)c3cnccc23)cc(OC)c1CN(C)Cc1ccc2c(c1)CCN(C(=O)/C(C#N)=C/C(C)(C)C)C2C (mixture of isomers) [Compound A46] | 40 to 70 | 1.25 to 10 | – | – |
| COc1cc(-c2cn(C)c(=O)c3cnccc23)cc(OC)c1CN(C)Cc1ccc2c(c1)C(C)N(C(=O)/C(C#N)=C/C(C)(C)C)CC2 (mixture of isomers) [Compound A47, (E/Z)-2-[7-[[2,6-dimethoxy-4-(2-methyl-1-oxo-2,7-naphthyridin-4-yl)phenylmethyl-methyl-amino]methyl]-1-methyl-3,4-dihydro-1H-isoquinoline-2-carbonyl]-4,4-dimethyl-pent-2-enenitrile] | 40 to 70 | 10 to 25 | – | – |
| COc1cc(-c2cc(C)c(=O)n(C)c2)cc(OC)c1CN1CCN(Cc2cccc3c2CCN(C(=O)/C(C#N)=C/C(C)C)C3C)CC1 (mixture of isomers) [Compound A52, (E/Z)-2-(5-((4-(4-(1,5-dimethyl-6-oxo-1,6-dihydropyridin-3-yl)-2,6-dimethoxybenzyl)piperazin-1-yl)methyl)-1-methyl-1,2,3,4-tetrahydroisoquinoline-2-carbonyl)-4-methylpent-2-enenitrile] | > 75 | 1.25 to 10 | – | – |
| COc1cc(-c2cn(C)c(=O)c(C)c2C)cc(OC)c1CN1CCN(Cc2cccc3c2CCN(C(=O)/C(C#N)=C/c2ccc(C(F)(F)F)cn2)C3C)CC1 (mixture of isomers) [Compound A54, (E/Z)-2-(5-((4-(2,6-dimethoxy-4-(1,4,5-trimethyl-6-oxo-1,6-dihydropyridin-3-yl)benzyl)piperazin-1-yl)methyl)-1-methyl-1,2,3,4-tetrahydroisoquinoline-2-carbonyl)-3-(5-(trifluoromethyl)pyridin-2-yl)acrylonitrile] | 40 to 70 | 1.25 to 10 | – | – |
| COc1cc(-c2cn(C)c(=O)c(C)c2C)cc(OC)c1CN1CCN(C(=O)CCc2ccc3c(c2)C(C)N(C(=O)/C(C#N)=C/c2nccs2)CC3)CC1 (mixture of isomers) [Compound A55, (E/Z)-2-(7(3-(4-(2,6-dimethoxy-4-(1,4,5-trimethyl-6-oxo-1,6-dihydropyridin-3-yl)benzyl)piperazin-1-yl)-3-oxopropyl)-1-methyl-1,2,3,4-tetrahydroisoquinoline-2-carbonyl)-3-(thiazol-2-yl)acrylonitrile] | 40 to 70 | 10 to 25 | – | – |
| COc1cc(-c2cn(C)c(=O)c(C)c2C)cc(OC)c1CN1CCN(C(=O)CCc2ccc3c(c2)CCN(C(=O)/C(C#N)=C/c2nccs2)C3C)CC1 (mixture of isomers) [Compound A56, (E/Z)-2-(6-(3-(4-(2,6-dimethoxy-4-(1,4,5-trimethyl-6-oxo-1,6-dihydropyridin-3-yl)benzyl)piperazin-1-yl)-3-oxopropyl)-1-methyl-1,2,3,4-tetrahydroisoquinoline-2-carbonyl)-3-(thiazol-2-yl)acrylonitrile] | 40 to 70 | 10 to 25 | – | – |
| COc1cc(-c2cn(C)c(=O)c(C)c2C)cc(OC)c1CN1CCN(C(=O)CCc2cccc3c2CCN(C(=O)/C(C#N)=C/c2nccs2)C3C)CC1 (mixture of isomers) [Compound A57, (E/Z)-2-(5-(3-(4-(2,6-dimethoxy-4-(1,4,5-trimethyl-6-oxo-1,6-dihydropyridin-4-yl)benzyl)piperazin-1-yl)-3-oxopropyl)-1-methyl-1,2,3,4-tetrahydroisoquinoline-2-carbonyl)-3-(thiazol-2-yl)acrylonitrile] | > 75 | 1.25 to 10 | – | – |
| CCCC(c1ccc(CCC(=O)N2CCN(Cc3c(OC)cc(-c4cn(C)c(=O)c(C)c4C)cc3OC)CC2)cc1)N(C)C(=O)/C(C#N)=C/c1nccs1 (mixture of isomers) [Compound A58, (E/Z)-2-cyano-N-(1-(4-(3-(4-(2,6-dimethoxy-4-(1,4,5-trimethyl-6-oxo-1,6-dihydropyridin-3-yl)benzyl)piperazin-1-yl)-3-oxopropyl)phenyl)butyl)-N-methyl-3-(thiazol-2-yl)acrylamide] | 40 to 70 | 1.25 to 10 | – | – |
| COc1cc(-c2cn(C)c(=O)c3cnccc23)cc(OC)c1CN(C)Cc1ccc2c(c1)C(C)N(C(=O)/C(C#N)=C/c1cccc(Br)n1)CC2 (mixture of isomers) [Compound A59] | 70 to 75 | 1.25 to 10 | – | – |
| COc1cc(-c2cn(C)c(=O)c(C)c2C)cc(OC)c1CN1CCN(Cc2cccc(C3CCCN3C(=O)/C(C#N)=C/c3cccc(Br)n3)c2)CC1 (mixture of isomers) [Compound A63, (E/Z)-3-(6-bromopyridin-2-yl)-2-(2-(3-((4-(2,6-dimethoxy-4-(1,4,5-trimethyl-6-oxo-1,6-dihydropyridin-3-yl)benzyl)piperazin-1-yl)methyl)phenyl)pyrrolidine-1-carbonyl) acrylonitrile] | > 75 | 1.25 to 10 | – | – |
| COc1cc(-c2cn(C)c(=O)c(C)c2C)cc(OC)c1CN1CC2CC1CN2Cc1cccc2c1CCN(C(=O)/C(C#N)=C/c1cccc(Br)n1)C2C (mixture of isomers) [Compound A64, (E/Z)-3-(6-bromopyridin-2-yl)-2-(5-((5-(2,6-dimethoxy-4-(1,4,5-trimethyl-6-oxo-1,6-dihydropyridin-3-yl)benzyl)-2,5-diazabicyclo[2.2.1]heptan-2-yl)methyl)-1-methyl-1,2,3,4-tetrahydroisoquinoline-2-carbonyl)acrylonitrile] | > 75 | 1.25 to 10 | – | – |
| COc1cc(-c2cn(C)c(=O)c(C)c2C)cc(OC)c1CN1CC2CCC(C1)N2Cc1cccc2c1CCN(C(=O)/C(C#N)=C/c1cccc(Br)n1)C2C (mixture of isomers) [Compound B8, (E/Z)-3-(6-bromopyridin-2-yl)-2-(5-((3-(2,6-dimethoxy-4-(1,4,5-trimethyl-6-oxo-1,6-dihydropyridin-3-yl)benzyl)-3,8-diazabicyclo[3.2.1]octan-8-yl)methyl)-1-methyl-1,2,3,4-tetrahydroisoquinoline-2-carbonyl)acrylonitrile] | – | – | 1.25 to 10 | 40 to 70 |
